Among the data in US10428044B2, “3-amino-1,5,6,7-tetrahydro-4H-indol-4-ones” (Bayer Pharma Aktiengesellschaft, priority 2014, dated 2019) are IC50 values, retold here.

Structures are written as SMILES. A value given as a limit tells only on which side of the number the result lay.

(recombinant) catalytic domain of human Bub1 (amino acids 704-1085), sequence (O43683 704-1085): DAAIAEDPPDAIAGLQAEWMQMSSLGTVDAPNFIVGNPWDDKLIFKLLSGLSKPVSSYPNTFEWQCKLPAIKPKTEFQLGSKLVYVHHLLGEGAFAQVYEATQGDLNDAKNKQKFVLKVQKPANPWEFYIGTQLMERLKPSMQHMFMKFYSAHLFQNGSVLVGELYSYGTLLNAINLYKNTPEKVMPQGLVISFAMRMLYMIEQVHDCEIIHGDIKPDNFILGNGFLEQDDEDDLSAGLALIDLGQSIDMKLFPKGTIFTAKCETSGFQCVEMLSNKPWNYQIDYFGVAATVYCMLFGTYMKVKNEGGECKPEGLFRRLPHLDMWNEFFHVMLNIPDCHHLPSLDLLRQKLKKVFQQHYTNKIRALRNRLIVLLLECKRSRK

The experiment addresses (recombinant) catalytic domain of human Bub1 (amino acids 704-1085) (Homo sapiens (Human), UniProt O43683). Description: Bub1 kinase assay (TR-FRET). The experiment is classed as biochemical. As to conditions: ATP 10 μM final, peptide substrate 1 μM final, 60 min at 22° C., read-out: Biological Assay: Bub1 kinase assay median IC50. The procedure, abridged:
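Readout was TR-FRET between a Eu-labeled antibody complex recognizing phosphoserine and streptavidin-XL665 on the biotinylated peptide, after EDTA stop and 1 h at 22° C. The kinase reaction ran for 60 min at 22° C. Values are means or medians of repeat tests, from 4-parameter fits normalized to enzyme-free and inhibitor-free controls.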
`O=C(COCc1ccccc1)Nc1cc(-c2[nH]c3c(c2Nc2ccccc2)C(=O)CCC3)ccn1` [Example 340, 2-(benzyloxy)-N-{4-[4-oxo-3-(phenylamino)-4,5,6,7-tetrahydro-1H-indol-2-yl]pyridin-2-yl}acetamide]: the half-inhibitory concentration (IC50) (as a rule, the midpoint of a concentration-inhibition curve) was 7.25 nM.

Take `O=C1CCC(C(=O)Nc2cc(-c3[nH]c4c(c3Nc3ccccc3)C(=O)CCC4)ccn2)N1` (centres unmarked) [Example 311, 5-oxo-N-{4-[4-oxo-3-(phenylamino)-4,5,6,7-tetrahydro-1H-indol-2-yl]pyridin-2-yl}-prolinamide]: the IC50 was determined as 40.6 nM.

`CC1(C)CC(=O)c2c([nH]c(-c3ccncc3)c2Nc2ccccc2Br)C1` [Example 71, 3-[(2-bromophenyl)amino]-6,6-dimethyl-2-(pyridin-4-yl)-1,5,6,7-tetrahydro-4H-indol-4-one]: the IC50 was found to be 49.7 nM.

With `CC(C)C1CC(=O)c2c([nH]c(-c3ccncc3)c2Nc2ccccc2)C1` (single isomer, unassigned) [Example 17, 3-(phenylamino)-6-(propan-2-yl)-2-(pyridin-4-yl)-1,5,6,7-tetrahydro-4H-indol-4-one], the IC50 came to 4.04 nM.

For the molecule `O=C(Cc1ccccc1)Nc1cc(-c2[nH]c3c(c2Nc2ccccc2)C(=O)CCC3)ccn1` [Example 233, N-{4-[4-oxo-3-(phenylamino)-4,5,6,7-tetrahydro-1H-indol-2-yl]pyridin-2-yl}-2-phenylacetamide], the IC50 is 43.9 nM.

Consider `CC1(C)CC(=O)c2c([nH]c(-c3ccncc3)c2Nc2cccc(C(O)C(F)(F)F)c2)C1` (centres unmarked) [Example 155, 6,6-dimethyl-2-(pyridin-4-yl)-3-{[3-(2,2,2-trifluoro-1-hydroxyethyl)phenyl]amino}-1,5,6,7-tetrahydro-4H-indol-4-one], for which the 50% inhibitory concentration (IC50) amounted to 1710 nM.

Regarding `O=C(COCc1ccc(F)cc1)Nc1cc(-c2[nH]c3c(c2Nc2ccccc2)C(=O)CCC3)ccn1` [Example 341, 2-[(4-fluorobenzyl)oxy]-N-{4-[4-oxo-3-(phenylamino)-4,5,6,7-tetrahydro-1H-indol-2-yl]pyridin-2-yl}acetamide], the IC50 worked out at 7.89 nM.

For `O=C1CCCc2[nH]c(-c3ccncc3OCCO)c(Nc3ccccc3)c21` [Example 459, 2-[3-(2-hydroxyethoxy)pyridin-4-yl]-3-(phenylamino)-1,5,6,7-tetrahydro-4H-indol-4-one], the IC50 worked out at 58.8 nM.

`COCC(=O)Nc1cc(-c2[nH]c3c(c2Nc2ccccc2)C(=O)CCC3)ccn1` [Example 325, 2-methoxy-N-{4-[4-oxo-3-(phenylamino)-4,5,6,7-tetrahydro-1H-indol-2-yl]pyridin-2-yl}acetamide]: the IC50 was 19.8 nM.

`CC1(C)CC(=O)c2c([nH]c(-c3ccnc(Cl)c3Cl)c2Nc2ccccc2)C1` [Example 214, 2-(2,3-dichloropyridin-4-yl)-6,6-dimethyl-3-(phenylamino)-1,5,6,7-tetrahydro-4H-indol-4-one]: the IC50 stood at 67.6 nM.

Consider `CC1(C)CC(=O)c2c([nH]c(-c3ccnc(NC(=O)C4CC4(F)F)c3)c2Nc2ccccc2)C1` (centres unmarked) [Example 477, N-{4-[6,6-dimethyl-4-oxo-3-(phenylamino)-4,5,6,7-tetrahydro-1H-indol-2-yl]pyridin-2-yl}-2,2-difluorocyclopropanecarboxamide], for which the IC50 is 6.62 nM.

Regarding `CCOc1cccc(Nc2c(-c3ccncc3)[nH]c3c2C(=O)CC(C)(C)C3)c1` [Example 104, 3-[(3-ethoxyphenyl)amino]-6,6-dimethyl-2-(pyridin-4-yl)-1,5,6,7-tetrahydro-4H-indol-4-one], the IC50 was determined as 524 nM.

Turning to `CC(F)C(=O)Nc1cc(-c2[nH]c3c(c2Nc2ccccc2)C(=O)CCC3)ccn1` (centres unmarked) [Example 241, 2-fluoro-N-{4-[4-oxo-3-(phenylamino)-4,5,6,7-tetrahydro-1H-indol-2-yl]pyridin-2-yl}propanamide], the IC50 was 40.7 nM.

As for `O=C1CC2(CC2)Cc2[nH]c(-c3ccnc(NC(=O)[C@H]4C[C@@H]4F)c3)c(Nc3ccccc3)c21` (relative stereo) [Example 466, rel-(R,S)-2-fluoro-N-{4-[4′-oxo-3′-(phenylamino)-1′,4′,5′,7′-tetrahydrospiro[cyclopropane-1,6′-indol]-2′-yl]pyridin-2-yl}cyclopropanecarboxamide], the half-maximal inhibitory concentration (IC50) was found to be 5.03 nM.

For `O=C1CCCc2[nH]c(-c3ccncc3Cl)c(Nc3ccccc3)c21` [Example 33, 2-(3-chloropyridin-4-yl)-3-(phenylamino)-1,5,6,7-tetrahydro-4H-indol-4-one], the IC50 turned out to be 17.9 nM.

`CC1(C)CC(=O)c2c([nH]c(-c3ccncc3)c2Nc2ccc(Oc3ccccc3)cc2)C1` [Example 514, 6,6-dimethyl-3-[(4-phenoxyphenyl)amino]-2-(pyridin-4-yl)-1,5,6,7-tetrahydro-4H-indol-4-one]: the IC50 is over 20000 nM.

`CC1(C)CC(=O)c2c([nH]c(-c3ccnc(NCCCc4ccccc4)c3)c2Nc2ccccc2)C1` [Example 497, 6,6-dimethyl-3-(phenylamino)-2-{2-[(3-phenylpropyl)amino]pyridin-4-yl}-1,5,6,7-tetrahydro-4H-indol-4-one]: the IC50 was found to be 1440 nM.
